Measured values reported in patent publication US20140158116A1, “INHIBITING TRPA1 FOR THE TREATMENT OF ASTHMA” (Cubist Pharmaceuticals, Inc., priority 2012, published 2014).
Like-named read-outs stand apart in the source and are kept apart here.

What was measured:
[1] = system: CFA-induced cold allodynia; assay: Complete Freund's Adjuvant (CFA) cold allodynia rodent pain model; format: in vivo; conditions: vehicle 19.8
Experimental: The compound of Formula (Ia) is also active in rodent models of pain in vivo induced by cold allodynia following chronic Complete Freund's Adjuvant-induced inflammation, as described in Example 6. […] The compound of Formula (Ia), the comparator compound of Formula (II) and ketoprofen were tested by the CFA-induced pain test method reported in del Camino et al., J. Neurosci., 30(45):15165-15174, incorporated herein by reference in its entirety. Briefly, the hind paw was sensitized to cold temperature (allodynic), by administering 0.1 mL of Complete Freund's Adjuvant (CFA) to the left hind paw. 2-3 days later, the time taken for the animal to lift its CFA-injected paw was recorded compared to its un-injected normal right hind paw. […] To avoid tissue damage the maximum cut-off time was 5 minutes. Animals that were allodynic (average PWL to the first three pain behaviors <150 seconds for the CFA-injected hind paw: ˜≧50% difference between the normal and CFA-injected paw) were included in the study and subsequently randomized across treatment groups. The following day, the animals were dosed under blinded conditions. Following the 1-2 hour pre-treatment time, the post-dose PWL readings were again taken. The efficacy of the drug treatment was assessed by comparing the PWL in the drug treatment animals to those animals that received the vehicle.

[2] = system: serum biomarkers of hepatotoxicity (ALT, AST, ALP, GGT); assay: Hepatotoxicity serum biomarker study in dogs, oral dose; format: in vivo, dog; conditions: dogs; 50 mg/kg PO
Experimental: The compound of Formula (Ia) was orally dosed to […] at dose levels of 5, 15 or 50 mg/kg using 30% Sulfobutylether β-cyclodextrin as the vehicle for assessment of safety as measured via serum chemistry biomarkers of hepatotoxicity or bile duct injury FIG. 5A, showing measurements of alanine aminotranferease [ALT], aspartate aminotranferease [AST], alkaline phosphatase [ALP] and gamma-glutamyl transferase [GGT] in the dogs at each dose level (each bar represents a measurement from 1 dog in the study). […] For example, the ALT levels were elevated up to about 60-fold in male dogs and up to about 130-fold in female beagle dogs following a single PO dose of 50 mg/kg.

hTRPA1 = hTRPA1 (Homo sapiens, UniProt O75762); assay: Whole-cell patch clamp block of inward current through hTRPA1; format: cell-based
hTRPA1, sequence (O75762 whole entry): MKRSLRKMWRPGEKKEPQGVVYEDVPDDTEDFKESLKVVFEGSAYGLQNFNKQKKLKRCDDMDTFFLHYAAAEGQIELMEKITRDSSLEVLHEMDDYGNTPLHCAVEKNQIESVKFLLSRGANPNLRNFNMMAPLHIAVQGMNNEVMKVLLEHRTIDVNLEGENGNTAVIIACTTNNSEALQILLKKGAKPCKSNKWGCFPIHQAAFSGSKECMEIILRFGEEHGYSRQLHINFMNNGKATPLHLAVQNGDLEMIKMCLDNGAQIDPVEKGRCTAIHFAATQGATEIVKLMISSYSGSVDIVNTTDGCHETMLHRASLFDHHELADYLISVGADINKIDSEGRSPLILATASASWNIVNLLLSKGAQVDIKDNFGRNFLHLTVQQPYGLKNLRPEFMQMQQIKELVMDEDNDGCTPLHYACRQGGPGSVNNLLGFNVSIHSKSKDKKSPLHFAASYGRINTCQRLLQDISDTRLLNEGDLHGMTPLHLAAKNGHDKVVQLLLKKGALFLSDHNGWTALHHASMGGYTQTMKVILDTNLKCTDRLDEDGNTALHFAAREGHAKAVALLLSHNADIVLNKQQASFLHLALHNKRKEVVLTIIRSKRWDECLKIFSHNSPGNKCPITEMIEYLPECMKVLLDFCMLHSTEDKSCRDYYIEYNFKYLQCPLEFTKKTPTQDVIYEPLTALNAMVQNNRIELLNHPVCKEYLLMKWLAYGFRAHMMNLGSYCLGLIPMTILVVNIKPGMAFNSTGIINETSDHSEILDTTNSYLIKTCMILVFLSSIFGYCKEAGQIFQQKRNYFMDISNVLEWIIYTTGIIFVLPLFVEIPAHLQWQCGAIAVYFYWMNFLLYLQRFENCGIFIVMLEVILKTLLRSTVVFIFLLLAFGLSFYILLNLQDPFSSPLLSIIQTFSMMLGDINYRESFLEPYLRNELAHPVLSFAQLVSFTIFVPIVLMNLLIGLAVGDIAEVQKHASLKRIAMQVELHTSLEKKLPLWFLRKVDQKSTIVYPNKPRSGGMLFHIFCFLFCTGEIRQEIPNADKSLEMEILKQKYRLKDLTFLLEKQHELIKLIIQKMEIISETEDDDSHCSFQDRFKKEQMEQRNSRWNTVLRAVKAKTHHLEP
Experimental: (§1) Data for TRPA1 inhibition and the selectivity of TRPA1 inhibition was obtained by this method for the compound of Formula (Ia) and included in Table 1 and Table 2. All currents were recorded in whole-cell configuration using EPC-9 and EPC-10 amplifiers and Patchmaster software (HEKA). […] The standard pipette solution consisted of 140 mM CsAsp, 10 mM EGTA, 10 mM HEPES, 2.27 mM MgCl2, 1.91 mM CaCl2, 4 mM MgATP, and 0.1-0.3 mM Na2GTP, with pH adjusted to 7.2 with CsOH. In addition, a solution containing 145 mM CsCl, 10 mM HEPES, 10 mM EGTA and 1 mM MgCl2 (pH 7.2 adjusted with CsOH) can be used. The standard bath solution contained 150 mM NaCl, 10 mM HEPES, 10 mM glucose, 4.5 mM KCl, 1 mM EGTA, 3 mM MgCl2, with pH adjusted to 7.4 with NaOH. In some instances, 2 mM CaCl2 was added in place of EGTA and the concentration of MgCl2 was reduced to 1 mM.
(§2) Data were collected either by continuous recordings at −60 mV or by applying voltage ramps from a holding potential of 0 mV every 4 s. Continuous recordings were collected at 400 Hz and digitally filtered off-line at 10 Hz for presentation. Voltage ramps were applied from −100 mV to 100 mV over the course of 400 ms, and data were collected at 10 kHz and filtered at 2.9 kHz. Inward and outward currents were analyzed from the ramps at −80 and 80 mV, respectively. Liquid junction potential correction was not used.
(§3) Solutions were switched using a gravity-fed continuous focal perfusion system. To achieve rapid temperature changes, two temperature control and perfusion systems were employed simultaneously. For temperatures ≧22° C., a Warner Instruments bipolar temperature controller (TC-344B) and inline heater (SHM-8) were used. […] Temperatures were confirmed using a thermistor (Warner Instruments, TA-29), with temperatures at the recorded cell estimated to be within +/−2° C. of those reported.
IC50 of compounds was estimated by testing each compound at 5 micromolar and 500 nanomolar. […] IC50 for compounds between 500 nanomolar and 5 micromolar was similarly estimated. Compounds blocking 50% or more at 500 nanomolar are retested at multiple concentrations, and the % block at each is fitted by standard equations to determine IC50 accurately using a 5-6 point concentration/response experiment.

hTRPV3 = target: T1, hTRPV3 (Homo sapiens, UniProt Q8NET8); assay: Patch clamp selectivity, hTRPV3; format: cell-based
T1 sequence (Q8NET8 1-790): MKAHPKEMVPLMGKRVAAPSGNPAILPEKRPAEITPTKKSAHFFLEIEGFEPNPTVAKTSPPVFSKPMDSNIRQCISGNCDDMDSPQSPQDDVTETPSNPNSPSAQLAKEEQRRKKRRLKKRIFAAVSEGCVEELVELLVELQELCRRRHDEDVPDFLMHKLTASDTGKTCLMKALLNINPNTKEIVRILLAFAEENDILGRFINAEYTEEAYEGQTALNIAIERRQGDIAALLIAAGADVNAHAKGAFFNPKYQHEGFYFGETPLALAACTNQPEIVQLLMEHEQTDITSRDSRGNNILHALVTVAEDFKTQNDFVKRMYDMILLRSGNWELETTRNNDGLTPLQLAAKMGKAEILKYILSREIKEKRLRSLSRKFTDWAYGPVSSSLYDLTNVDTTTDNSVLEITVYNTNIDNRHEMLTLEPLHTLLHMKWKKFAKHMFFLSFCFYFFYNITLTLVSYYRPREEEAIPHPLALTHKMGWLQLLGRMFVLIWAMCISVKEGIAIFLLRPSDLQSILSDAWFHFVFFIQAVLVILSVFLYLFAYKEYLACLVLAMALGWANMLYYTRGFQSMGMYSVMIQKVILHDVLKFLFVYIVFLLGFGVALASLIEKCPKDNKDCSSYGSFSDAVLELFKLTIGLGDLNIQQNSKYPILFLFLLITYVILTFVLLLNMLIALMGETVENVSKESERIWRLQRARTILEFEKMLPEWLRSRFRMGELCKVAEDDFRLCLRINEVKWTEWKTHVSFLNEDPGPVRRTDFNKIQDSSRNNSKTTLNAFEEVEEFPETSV
Experimental: as §1
Data were collected either by continuous recordings at −60 mV or by applying voltage ramps from a holding potential of 0 mV every 4 s. […] Inward and outward currents were analyzed from the ramps at −80 and 80 mV, respectively. […]
Solutions were switched using a gravity-fed continuous focal perfusion system. […] Temperatures were confirmed using a thermistor (Warner Instruments, TA-29), with temperatures at the recorded cell estimated to be within +/−2° C. of those reported. […]

dTRPA1 = dTRPA1 (Canis lupus familiaris, UniProt A0A8I3Q1Q7); assay: Whole-cell patch clamp block of inward current through dTRPA1; format: cell-based, Dog
dTRPA1, sequence (A0A8I3Q1Q7 1-1118): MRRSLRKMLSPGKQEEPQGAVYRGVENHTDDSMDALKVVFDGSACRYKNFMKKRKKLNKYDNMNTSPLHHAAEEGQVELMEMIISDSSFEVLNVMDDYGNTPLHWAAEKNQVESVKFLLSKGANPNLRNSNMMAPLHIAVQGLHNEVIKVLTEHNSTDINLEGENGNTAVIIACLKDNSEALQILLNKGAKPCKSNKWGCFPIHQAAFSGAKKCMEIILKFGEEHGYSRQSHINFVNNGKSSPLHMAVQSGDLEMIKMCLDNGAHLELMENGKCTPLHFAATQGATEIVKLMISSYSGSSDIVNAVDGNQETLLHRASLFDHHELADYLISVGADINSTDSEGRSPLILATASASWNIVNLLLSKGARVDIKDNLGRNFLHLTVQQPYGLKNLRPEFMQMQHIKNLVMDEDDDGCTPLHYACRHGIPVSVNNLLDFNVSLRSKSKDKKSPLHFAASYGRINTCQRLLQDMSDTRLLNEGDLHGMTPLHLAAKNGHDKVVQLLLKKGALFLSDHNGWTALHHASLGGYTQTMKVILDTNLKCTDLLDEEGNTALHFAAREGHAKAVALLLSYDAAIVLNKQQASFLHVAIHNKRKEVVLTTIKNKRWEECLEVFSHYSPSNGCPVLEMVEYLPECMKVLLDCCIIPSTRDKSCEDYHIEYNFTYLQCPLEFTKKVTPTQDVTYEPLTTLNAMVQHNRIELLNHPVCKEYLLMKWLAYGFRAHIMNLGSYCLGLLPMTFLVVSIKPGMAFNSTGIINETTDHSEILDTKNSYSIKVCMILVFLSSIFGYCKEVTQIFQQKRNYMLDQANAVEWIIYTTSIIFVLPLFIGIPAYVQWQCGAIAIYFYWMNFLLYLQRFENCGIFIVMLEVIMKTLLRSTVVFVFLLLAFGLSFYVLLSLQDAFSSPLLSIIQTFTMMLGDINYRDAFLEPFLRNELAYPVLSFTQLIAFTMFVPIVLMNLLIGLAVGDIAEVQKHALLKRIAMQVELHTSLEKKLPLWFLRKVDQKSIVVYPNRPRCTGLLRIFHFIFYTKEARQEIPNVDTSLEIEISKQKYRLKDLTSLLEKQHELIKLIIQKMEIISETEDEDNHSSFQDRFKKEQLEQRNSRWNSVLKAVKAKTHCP
Experimental: as §1, §2, §3
IC50 of compounds was estimated by testing each compound at 5 micromolar and 500 nanomolar. […] IC50 for compounds between 500 nanomolar and 5 micromolar was similarly estimated. […]

## C[C@H]1CCCN1c1ncc(-c2cccc(NC(=O)Cn3cnc4c3c(=O)n(C)c(=O)n4C)n2)cn1 [Formula (Ia)]
[1]; 1 mg/kg i.p., cold plate
  Change in Paw Withdrawal Latency: 38.4
[1]; 5 mg/kg i.p.
  Change in Paw Withdrawal Latency: 45.0
[1]; 10 mg/kg i.p.
  Change in Paw Withdrawal Latency: 117.6
[1]; 30 mg/kg i.p.
  Change in Paw Withdrawal Latency: 134.4
[1]; 50 mg/kg i.p.
  Change in Paw Withdrawal Latency: 177.8
[2]
  effect on serum biomarkers of hepatotoxicity: did not elevate serum biomarkers of hepatotoxicity or acute phase response
hTRPA1; hTRPA1, Human, current activation 10 micromolar AITC, whole cell patch, read-out: IC50 Inward current
  IC50: 93 ± 22 nM
hTRPA1; hTRPA1, class symbol, read-out: Potency (IC50) Human
  IC50: 50 to 100 nM
hTRPA1; versus the eight channels of Table 2
  selectivity for block of TRPA1 over all other tested channels: at least 100 fold
hTRPV3
  Fold Selectivity Compared to TRPA1: >300 fold
hTRPV3; 30 micromolar 2-APB, Inward (−80 mV)
  IC50: > 32 µM
dTRPA1; class symbol, read-out: Potency (IC50) Dog
  IC50: ≥ 100 nM
dTRPA1; dTRPA1, Dog, current activation 10 micromolar AITC, read-out: IC50 Inward current
  IC50: 102 ± 20 nM
